The results in this text go back to patent US10829499B2, “Tetracyclic heterocycle compounds useful as HIV integrase inhibitors” (MERCK SHARP & DOHME CORP., priority 2016, dated 2020).

Structures are written as SMILES. Like-named read-outs stand apart in the source and are kept apart here.

This test deals with HIV-1 (NL4-3 strain). Briefly: Assay for Inhibition of HIV Replication (kinetic assay, MT4-gag-GFP reporter cell line; VIKING). The test is classed as cell-based. As to the method: This assay is a kinetic assay that employs a reporter cell line (MT4-gag-GFP) to quantify the number of new cells infected in each round of replication.
MT4-GFP cells (250,000 cells/ml) were bulk-infected with HIV-1 (NL4-3 strain) at low multiplicity of infection (MOI) in RPMI cell culture medium+10% FBS for 24 hours. Cells were then washed once in RPMI cell culture medium+10% FBS and resuspended in RPMI cell culture medium+0% or 10% or 100% normal human serum (NHS). Test compounds were serial-diluted in DMSO on an ECHO® liquid handler. The infected MT4-GFP cells were added to a 384-well poly-D-lysine coated black plate with clear bottom in which the diluted test compounds were placed. The cells were seeded at 8,000 cells per well and the final DMSO concentration was 0.4%. The infected cells (Green GFP cells) were quantified at both 24 and 48 hours post incubation using Acumen eX3. Viral reproductive ratio (R0) was determined using the number of infected cells at 48 hours divided by the number of infected cells at 24 hours. Percent viral growth inhibition was calculated by [1-(R-Rtripledrug),/(RDMSO-Rtripledrug)]*100. Compound potency IP or IC50 was determined by a 4-parameter dose response curve analysis. In vitro potency in the cell-based assay in the absence of normal human serum (NHS) and the presence of 100% NHS.

The mark [1] stands for this setting: MT4-GFP cells infected with HIV-1 NL4-3, 0% normal human serum (NHS), read-out: VIKING IP50 (nM) with 0% NHS.
Setting [2] is: MT4-GFP cells infected with HIV-1 NL4-3, 100% normal human serum (NHS), read-out: VIKING IP50 (nM) with 100% NHS.
Setting [3] is: Human immunodeficiency virus 1, NL43, MT4-GFP cells infected with HIV-1 NL4-3, 0% normal human serum (NHS), read-out: VIKING IP50 (nM) with 0% NHS.
The mark [4] stands for this setting: Human immunodeficiency virus 1, NL43, MT4-GFP cells infected with HIV-1 NL4-3, 100% normal human serum (NHS), read-out: VIKING IP50 (nM) with 100% NHS.

Regarding `O=C(NCc1cccc(F)c1F)c1c2n3c(c(O)c1=O)C(=O)N1C4CCC(C4)OC1C3CC2` (centres unmarked) [Compound 167], the IC50 under setting [1] was 3.78 nM and the IC50 under setting [2] turned out to be 3390 nM.

As for `CCNC1CC2C3OCCCN3C(=O)c3c(O)c(=O)c(C(=O)NCc4c(F)cc(F)cc4F)c1n32` (centres unmarked) [Compound 183], the IC50 runs as follows: under setting [1], 13.3 nM; under setting [2], 3570 nM.

`CCNC1C[C@@H]2[C@H]3OC4CCC(C4)N3C(=O)c3c(O)c(=O)c(C(=O)NCc4ccc(F)cc4F)c1n32` (some centres unmarked) [Compound 175]: the IC50 under setting [1] turned out to be 20.8 nM and the IC50 under setting [2] is 78.8 nM.

For the compound `CCCN1C[C@H](C)N2C(=O)c3c(O)c(=O)c(C(=O)NCc4cccc(Cl)c4F)c4n3C(CC4)C12` (some centres unmarked) [Compound 113], the IC50 amounted to 3.58 nM under setting [3] and 291 nM under setting [4].

For `C[C@H]1CN2C(=O)c3c(O)c(=O)c(C(=O)NCc4cccc(Cl)c4F)c4n3C(CC4)C2N1C` (some centres unmarked) [Compound 104], the IC50 is, setting by setting: under setting [1], 0.397 nM; under setting [2], 71.4 nM.

With `O=C(NCc1ccc(F)cc1F)c1c2n3c(c(O)c1=O)C(=O)N1CCCCOC1C3CC2` (single isomer, unassigned) [Compound 70], the IC50 is, setting by setting: under setting [1], 1.12 nM; under setting [2], 3920 nM.

On to `COC1CC2C3N(C)CCN3C(=O)c3c(O)c(=O)c(C(=O)NCc4ccc(F)cc4F)c1n32` (centres unmarked) [Compound 127], for which the IC50 was 1.2 nM under setting [1] and 11.7 nM under setting [2].

Regarding `C[C@H]1CNC2C3CCc4c(C(=O)NCc5ccc(F)cc5F)c(=O)c(O)c(n43)C(=O)N21` (some centres unmarked) [Compound 99], the IC50 under setting [3] worked out at 2.28 nM and the IC50 under setting [2] amounted to 19.2 nM.

Regarding `O=C(NCc1ccc(F)c(Cl)c1F)c1c2n3c(c(O)c1=O)C(=O)N1C4CCC(C4)OC1C3CC2` (centres unmarked) [Compound 156], the IC50 is 11.8 nM under setting [1] and 5270 nM under setting [2].

`CCNC1CC2C3OCCCN3C(=O)c3c(O)c(=O)c(C(=O)NCc4ccc(F)cc4F)c1n32` (centres unmarked) [Compound 201]: the IC50 under setting [1] amounted to 8.98 nM and the IC50 under setting [2] turned out to be 2060 nM.

`C[C@H]1CNC2C3CCc4c(-c5nnc(Cc6ccc(F)cc6F)s5)c(=O)c(O)c(n43)C(=O)N21` (some centres unmarked) [Compound 128]: the IC50 came out at 361 nM under setting [4] and 6.69 nM under setting [1].

Turning to `CC(C)N1C2C3CCc4c(C(=O)NCc5cccc(Cl)c5F)c(=O)c(O)c(n43)C(=O)N2C[C@@H]1C` (some centres unmarked) [Compound 106], the IC50 by setting is: under setting [3], 3.68 nM; under setting [4], 88.9 nM.

`O=C(NCc1cccc(Cl)c1F)c1c2n3c(c(O)c1=O)C(=O)N1CCCOC1C3CC2` (single isomer, unassigned) [Compound 49]: the IC50 under setting [3] stood at 0.96 nM and the IC50 under setting [4] stood at 1190 nM.

Regarding `O=C(NCc1cccc(Cl)c1F)c1c2n3c(c(O)c1=O)C(=O)N1CCCCOC1C3CC2` (single isomer, unassigned) [Compound 66], the IC50 reads like this: under setting [1], 1.48 nM; under setting [2], 834 nM.

Turning to `C[C@@H]1COC2C3CCc4c(C(=O)NCc5cccc(Cl)c5F)c(=O)c(O)c(n43)C(=O)N21` (single isomer, unassigned) [Compound 36], the IC50 came out at 0.826 nM under setting [3] and 1060 nM under setting [4].

Consider `CCNC1CC2C3OCCCN3C(=O)c3c(O)c(=O)c(C(=O)NCc4cccc(F)c4F)c1n32` (centres unmarked) [Compound 188], for which the IC50 was 16.3 nM under setting [1] and 462 nM under setting [2].

For the compound `COC1CC2C3N(C)CCN3C(=O)c3c(O)c(=O)c(C(=O)NCc4ccc(F)cc4F)c1n32` (centres unmarked) [Compound 125], the IC50 came out at 10.3 nM under setting [1] and 57.7 nM under setting [2].

Turning to `O=C(NCc1ccc(F)cc1F)c1c2n3c(c(O)c1=O)C(=O)N1CCOC1C3CC2` (single isomer, unassigned) [Compound 6], the IC50 under setting [1] came to 0.825 nM and the IC50 under setting [2] amounted to 7910 nM.

As to `C[C@H]1CN2C(=O)c3c(O)c(=O)c(C(=O)NCc4cccc(Cl)c4F)c4n3C(CC4)C2N1S(C)(=O)=O` (some centres unmarked) [Compound 118], the IC50 under setting [3] worked out at 8.73 nM and the IC50 under setting [2] was 1280 nM.

For the compound `C[C@H]1CN2C(=O)c3c(O)c(=O)c(C(=O)NCc4ccc(F)cc4F)c4n3C(CC4)C2N1` (some centres unmarked) [Compound 97], the IC50 runs as follows: under setting [1], 4.3 nM; under setting [2], 48.3 nM.

With `CC(=O)N1C[C@H](C)N2C(=O)c3c(O)c(=O)c(C(=O)NCc4cccc(Cl)c4F)c4n3C(CC4)C12` (some centres unmarked) [Compound 120], the IC50 runs as follows: under setting [1], 1.19 nM; under setting [2], 24.5 nM.

As to `O=C(NCc1ccc(F)cc1F)c1c2n3c(c(O)c1=O)C(=O)N1CCCCOC1C3CC2` (single isomer, unassigned) [Compound 71], the IC50 under setting [1] came out at 1.25 nM and the IC50 under setting [2] worked out at 30.7 nM.

With `O=C(NCc1ccc(F)c(Cl)c1)c1c2n3c(c(O)c1=O)C(=O)N1CCOC1C3CC2` (single isomer, unassigned) [Compound 25], the IC50 turned out to be 0.809 nM under setting [1] and 2540 nM under setting [2].

`CCNC1C[C@H]2[C@H]3OC4CCC(C4)N3C(=O)c3c(O)c(=O)c(C(=O)NCc4ccc(F)cc4F)c1n32` (some centres unmarked) [Compound 176]: the IC50 amounted to 16.8 nM under setting [3] and 129 nM under setting [4].

As to `CCNC1CC2C3OCCCN3C(=O)c3c(O)c(=O)c(C(=O)NCc4c(F)cc(F)cc4F)c1n32` (centres unmarked) [Compound 184], the IC50 runs as follows: under setting [1], 5 nM; under setting [2], 167 nM.

In the case of `C[C@@H]1COC2C3CCc4c(C(=O)NCc5cccc(Cl)c5F)c(=O)c(O)c(n43)C(=O)N21` (single isomer, unassigned) [Compound 37], the IC50 turned out to be 0.546 nM under setting [1] and 1690 nM under setting [2].

For `C[C@@H]1COC2C3CCc4c(C(=O)NCc5cccc(Cl)c5F)c(=O)c(O)c(n43)C(=O)N21` (some centres unmarked) [Compound 35], the IC50 is, setting by setting: under setting [3], 0.733 nM; under setting [4], 88.7 nM.

Consider `O=C(NCc1ccc(F)cc1F)c1c2n3c(c(O)c1=O)C(=O)N1CCOC1C3CC2` (single isomer, unassigned) [Compound 8], for which the IC50 by setting is: under setting [1], 1 nM; under setting [2], 245 nM.

With `C[C@H]1CN(C)C2C3CCc4c(C(=O)NCc5cccc(Cl)c5F)c(=O)c(O)c(n43)C(=O)N21` (some centres unmarked) [Compound 110], the IC50 under setting [1] is 0.733 nM and the IC50 under setting [2] came out at 67.8 nM.

With `C[C@H]1CN2C(=O)c3c(O)c(=O)c(C(=O)NCc4cccc(Cl)c4F)c4n3C(CC4)C2N1` (some centres unmarked) [Compound 93], the IC50 came to 49 nM under setting [4] and 1.14 nM under setting [1].

For the compound `CC12OCCCN1C(=O)c1c(O)c(=O)c(C(=O)NCc3ccc(F)cc3F)c3n1C2CC3` (centres unmarked) [Compound 133], the IC50 is, setting by setting: under setting [3], 0.93 nM; under setting [2], 617 nM.

In the case of `O=C(NCc1cccc(Cl)c1F)c1c2n3c(c(O)c1=O)C(=O)N1C4CCC(C4)OC1C3CC2` (centres unmarked) [Compound 152], the IC50 by setting is: under setting [3], 5.52 nM; under setting [2], 2100 nM.

`C[C@H]1COC2C3CCc4c(C(=O)NCc5cccc(Cl)c5F)c(=O)c(O)c(n43)C(=O)N21` (single isomer, unassigned) [Compound 31]: the IC50 by setting is: under setting [1], 0.418 nM; under setting [2], 197 nM.

On to `C[C@H]1CNC2C3CCc4c(C(=O)NCc5ccc(F)cc5F)c(=O)c(O)c(n43)C(=O)N21` (some centres unmarked) [Compound 101], for which the IC50 runs as follows: under setting [1], 1.99 nM; under setting [2], 23.4 nM.

Consider `O=C(NCc1c(F)cccc1F)c1c2n3c(c(O)c1=O)C(=O)N1CCOC1C3CC2` (single isomer, unassigned) [Compound 17], for which the IC50 came out at 7.09 nM under setting [1] and 7940 nM under setting [2].

As for `C[C@H]1CN2C(=O)c3c(O)c(=O)c(C(=O)NCc4cccc(Cl)c4F)c4n3C(CC4)C2O1` (single isomer, unassigned) [Compound 43], the IC50 under setting [1] was 1.06 nM and the IC50 under setting [2] was 18.2 nM.

Turning to `COC1CC2C3OCCN3C(=O)c3c(O)c(=O)c(C(=O)NCc4ccc(F)cc4F)c1n32` (single isomer, unassigned) [Compound 79], the IC50 stood at 1.79 nM under setting [1] and 135 nM under setting [2].

As for `CCNC1CC2C3OCCCN3C(=O)c3c(O)c(=O)c(C(=O)NCc4c(F)cc(F)cc4F)c1n32` (centres unmarked) [Compound 178], the IC50 under setting [1] worked out at 16 nM and the IC50 under setting [2] was found to be 6090 nM.

As for `CCNC1CC2C3OCCCN3C(=O)c3c(O)c(=O)c(C(=O)NCc4cccc(Cl)c4F)c1n32` (centres unmarked) [Compound 200], the IC50 under setting [1] came to 10.1 nM and the IC50 under setting [2] came out at 67.3 nM.

Turning to `C[C@H]1CN2C(=O)c3c(O)c(=O)c(C(=O)NCc4cccc(Cl)c4F)c4n3C(CC4)C2O1` (single isomer, unassigned) [Compound 45], the IC50 is, setting by setting: under setting [1], 5.81 nM; under setting [2], 486 nM.

On to `O=C(NCc1ccc(F)cc1)c1c2n3c(c(O)c1=O)C(=O)N1C4CCC(C4)OC1C3CC2` (centres unmarked) [Compound 160], for which the IC50 by setting is: under setting [3], 4.14 nM; under setting [2], 73.1 nM.

Turning to `CCNC1CC2C3OCCCN3C(=O)c3c(O)c(=O)c(C(=O)NCc4cccc(F)c4F)c1n32` (centres unmarked) [Compound 186], the IC50 was 9.86 nM under setting [1] and 36.5 nM under setting [2].

In the case of `O=C(NCc1cccc(Cl)c1F)c1c2n3c(c(O)c1=O)C(=O)N1CCOC1C3CC2` (single isomer, unassigned) [Compound 3], the IC50 reads like this: under setting [3], 0.478 nM; under setting [2], 372 nM.
